Results from EP3868759A1, “2,3,5-SUBSTITUTED PYRROLO[2,3-B]PYRIDINES AS ERBB MODULATORS USEFUL FOR TREATING CANCER” (PearlRiver Bio GmbH, priority 2020, dated 2021).

Experiments:
EGFR L858R Ba/F3 = test: CellTiter-Glo cell viability, EGFR L858R Ba/F3; assay type: cell-based; conditions: Mus musculus, BaF3, 72 h, read-out: EGFR L858R Ba/F3 CTG IC50 /
Protocol: (§1) The CellTiter-Glo Luminescent Cell Viability Assay (Promega) is a homogeneous method of determining the number of viable cells in culture. It is based on quantification of ATP, indicating the presence of metabolically active cells. Cells are seeded on day 1 at cell numbers that assure assay linearity and optimal signal intensity. After incubation for 24h in humidified chambers at 37°C and 5% CO2, compounds in DMSO are added at different concentrations. Cells are further incubated for 72 h at 37°C and 5% CO2. Cells treated with the compound vehicle DMSO are used as positive controls and cells treated with 10 µM Staurosporine serve as negative controls. At day 5 the CellTiter Glo Reagent is prepared according to the instructions of the kit (Promega Inc.): Reagent is mixed 1:1 with cell culture medium. Thereon, mixture and assay plates are equilibrated at room temperature for 20 min. Equal volumes of the reagent-medium-mixture is added to the volume of culture medium present in each well. The plates are mixed at ∼200 rpm for 2 minutes on an orbital shaker. The microplates are then incubated at room temperature for 10 minutes for stabilization of the luminescent signal. Following incubation the luminescence is recorded on a Victor microplate reader (Perkin Elmer) using a 200 ms integration time. The data is then analyzed with Excel using the XLFIT Plugin (dose response Fit 205) for IC50-determination. As quality control the Z'-factor is calculated from 16 positive and negative control values. Only assay results showing a Z'-factor ≥ 0.5 are used for further analysis.

EGFR vIII Ba/F3 = test: CellTiter-Glo cell viability, EGFR vIII Ba/F3; assay type: cell-based; conditions: Mus musculus, BaF3, 72 h, read-out: EGFR vIII Ba/F3 CTG IC50 /
Protocol: as §1

A431 = test: CellTiter-Glo cell viability, A431; assay type: cell-based; conditions: Homo sapiens, A-431, 72 h, read-out: A431 CTG IC50
Protocol: as §1

EGFR wt = EGFR wt (Homo sapiens, UniProt P00533); test: Lance assay, EGFR wt; conditions: biochemical Lance assay
Chain of EGFR wt (P00533 25-1210): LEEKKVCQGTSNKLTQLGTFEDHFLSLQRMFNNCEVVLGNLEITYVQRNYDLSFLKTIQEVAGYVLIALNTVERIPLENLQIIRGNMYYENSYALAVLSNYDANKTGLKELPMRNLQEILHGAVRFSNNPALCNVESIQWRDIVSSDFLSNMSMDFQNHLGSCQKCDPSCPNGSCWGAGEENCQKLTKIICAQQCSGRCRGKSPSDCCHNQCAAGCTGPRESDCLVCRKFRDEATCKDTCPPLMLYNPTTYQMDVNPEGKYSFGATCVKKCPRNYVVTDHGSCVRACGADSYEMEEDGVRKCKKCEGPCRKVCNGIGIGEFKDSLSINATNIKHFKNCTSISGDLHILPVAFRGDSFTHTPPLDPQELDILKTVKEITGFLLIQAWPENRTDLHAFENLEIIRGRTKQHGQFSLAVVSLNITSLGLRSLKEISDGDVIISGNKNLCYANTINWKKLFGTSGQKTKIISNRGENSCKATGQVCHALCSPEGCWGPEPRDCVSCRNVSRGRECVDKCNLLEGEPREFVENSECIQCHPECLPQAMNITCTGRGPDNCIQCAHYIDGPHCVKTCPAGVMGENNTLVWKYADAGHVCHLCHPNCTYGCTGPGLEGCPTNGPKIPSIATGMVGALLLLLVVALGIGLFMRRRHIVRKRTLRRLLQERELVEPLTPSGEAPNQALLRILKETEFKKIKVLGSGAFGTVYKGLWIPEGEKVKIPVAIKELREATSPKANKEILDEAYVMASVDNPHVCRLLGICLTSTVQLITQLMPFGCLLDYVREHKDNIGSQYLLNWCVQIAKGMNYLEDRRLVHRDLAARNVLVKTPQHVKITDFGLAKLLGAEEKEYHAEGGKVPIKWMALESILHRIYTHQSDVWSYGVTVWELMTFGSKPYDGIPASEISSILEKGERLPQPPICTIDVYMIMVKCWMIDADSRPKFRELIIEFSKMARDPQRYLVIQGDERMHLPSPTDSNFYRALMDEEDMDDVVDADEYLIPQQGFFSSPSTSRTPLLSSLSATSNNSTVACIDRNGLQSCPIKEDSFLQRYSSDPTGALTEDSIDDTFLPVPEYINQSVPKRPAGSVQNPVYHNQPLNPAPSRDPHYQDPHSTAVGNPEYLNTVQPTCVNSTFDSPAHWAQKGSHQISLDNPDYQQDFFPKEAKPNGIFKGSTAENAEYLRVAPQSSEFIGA

[1] = tested on: EGFR Exon 20 InsNPH Ba/F3; test: CellTiter-Glo cell viability, EGFR Exon 20 InsNPH Ba/F3; assay type: cell-based; conditions: Mus musculus, BaF3, 72 h, read-out: EGFR Exon 20 InsNPH Ba/F3 CTG IC50
Protocol: as §1

EGFR L858R T790M Ba/F3 = test: CellTiter-Glo cell viability, EGFR L858R T790M Ba/F3; assay type: cell-based; conditions: Mus musculus, BaF3, 72 h, read-out: EGFR L858R T790M Ba/F3 CTG IC50 /
Protocol: as §1

EGFR (del746-750) = EGFR (del746-750) (Homo sapiens, UniProt P00533, DEL746-750); test: Lance assay, EGFR (del746-750); conditions: biochemical Lance assay
Chain of EGFR (del746-750) (P00533 with tags, fused parts or gaps DEL746-750): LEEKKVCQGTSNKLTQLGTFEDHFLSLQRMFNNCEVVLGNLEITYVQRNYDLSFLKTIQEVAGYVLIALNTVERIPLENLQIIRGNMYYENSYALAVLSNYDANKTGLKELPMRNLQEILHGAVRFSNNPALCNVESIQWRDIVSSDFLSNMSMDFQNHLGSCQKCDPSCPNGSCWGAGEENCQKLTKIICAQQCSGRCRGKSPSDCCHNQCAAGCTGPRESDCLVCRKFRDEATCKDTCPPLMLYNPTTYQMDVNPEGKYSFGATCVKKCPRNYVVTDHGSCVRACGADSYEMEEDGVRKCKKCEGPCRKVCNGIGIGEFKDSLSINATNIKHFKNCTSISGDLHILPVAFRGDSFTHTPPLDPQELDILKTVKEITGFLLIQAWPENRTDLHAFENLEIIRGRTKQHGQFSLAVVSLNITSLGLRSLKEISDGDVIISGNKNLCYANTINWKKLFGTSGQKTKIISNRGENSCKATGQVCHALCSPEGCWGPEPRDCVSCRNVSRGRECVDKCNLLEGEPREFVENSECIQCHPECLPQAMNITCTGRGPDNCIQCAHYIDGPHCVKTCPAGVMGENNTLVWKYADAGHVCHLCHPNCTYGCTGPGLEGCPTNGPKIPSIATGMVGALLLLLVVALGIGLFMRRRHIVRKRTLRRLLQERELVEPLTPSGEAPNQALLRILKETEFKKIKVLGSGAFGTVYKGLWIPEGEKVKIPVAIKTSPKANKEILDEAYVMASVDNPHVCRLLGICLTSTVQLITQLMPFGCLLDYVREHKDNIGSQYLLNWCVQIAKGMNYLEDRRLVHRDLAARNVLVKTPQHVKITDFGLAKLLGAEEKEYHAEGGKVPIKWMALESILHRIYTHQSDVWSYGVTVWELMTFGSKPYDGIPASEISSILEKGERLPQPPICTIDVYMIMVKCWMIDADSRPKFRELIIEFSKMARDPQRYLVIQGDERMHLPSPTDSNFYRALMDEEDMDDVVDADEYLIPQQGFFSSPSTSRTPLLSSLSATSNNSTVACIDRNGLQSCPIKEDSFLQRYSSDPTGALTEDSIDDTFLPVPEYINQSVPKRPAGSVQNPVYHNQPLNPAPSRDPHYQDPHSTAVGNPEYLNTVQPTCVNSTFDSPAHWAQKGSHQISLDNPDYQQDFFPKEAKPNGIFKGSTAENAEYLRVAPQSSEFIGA

[2] = tested on: Her2 Exon 20 InsYVMA Ba/F3; test: CellTiter-Glo cell viability, Her2 Exon 20 InsYVMA Ba/F3; assay type: cell-based; conditions: Mus musculus, BaF3, 72 h, read-out: Her2 Exon 20 InsYVMA Ba/F3 CTG IC50
Protocol: as §1

Cuto-17 = test: CellTiter-Glo cell viability, Cuto-17; assay type: cell-based; conditions: CUTO17, 72 h, read-out: Cuto-17 CTG IC50
Protocol: as §1

EGFR T790M L858R = EGFR T790M L858R (Homo sapiens, UniProt P00533, L858R/T790M); test: Lance assay, EGFR T790M L858R; conditions: biochemical Lance assay
Chain of EGFR T790M L858R (P00533 25-1210 T790M/L858R): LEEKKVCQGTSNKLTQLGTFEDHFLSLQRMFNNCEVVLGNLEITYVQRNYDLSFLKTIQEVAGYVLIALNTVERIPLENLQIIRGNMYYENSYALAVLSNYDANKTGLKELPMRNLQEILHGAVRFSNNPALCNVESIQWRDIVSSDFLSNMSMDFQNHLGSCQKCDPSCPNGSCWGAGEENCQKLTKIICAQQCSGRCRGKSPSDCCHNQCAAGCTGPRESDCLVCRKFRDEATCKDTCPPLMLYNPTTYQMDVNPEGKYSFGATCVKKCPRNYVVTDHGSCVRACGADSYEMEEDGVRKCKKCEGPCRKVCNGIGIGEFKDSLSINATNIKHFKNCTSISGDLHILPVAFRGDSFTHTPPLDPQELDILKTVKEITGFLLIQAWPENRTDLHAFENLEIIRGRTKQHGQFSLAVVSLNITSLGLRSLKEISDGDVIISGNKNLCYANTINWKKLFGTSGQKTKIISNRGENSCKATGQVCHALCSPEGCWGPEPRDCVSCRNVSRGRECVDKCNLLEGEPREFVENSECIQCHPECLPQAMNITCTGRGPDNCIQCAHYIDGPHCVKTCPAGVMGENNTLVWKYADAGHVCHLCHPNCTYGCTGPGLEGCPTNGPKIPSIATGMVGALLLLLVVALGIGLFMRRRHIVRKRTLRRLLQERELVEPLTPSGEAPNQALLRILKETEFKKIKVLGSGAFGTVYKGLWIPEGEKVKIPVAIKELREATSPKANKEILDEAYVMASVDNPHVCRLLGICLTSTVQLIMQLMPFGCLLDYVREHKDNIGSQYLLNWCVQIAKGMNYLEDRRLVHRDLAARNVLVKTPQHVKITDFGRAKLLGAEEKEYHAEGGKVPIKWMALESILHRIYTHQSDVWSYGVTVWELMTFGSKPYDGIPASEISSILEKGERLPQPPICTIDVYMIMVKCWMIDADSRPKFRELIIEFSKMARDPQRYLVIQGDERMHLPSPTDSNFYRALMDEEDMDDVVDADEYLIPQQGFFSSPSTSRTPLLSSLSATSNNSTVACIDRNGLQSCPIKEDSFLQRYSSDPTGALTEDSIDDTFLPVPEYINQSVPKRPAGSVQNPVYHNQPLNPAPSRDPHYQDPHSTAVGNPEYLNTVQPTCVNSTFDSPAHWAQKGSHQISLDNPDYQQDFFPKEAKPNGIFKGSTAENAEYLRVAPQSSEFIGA

HER2 INS YVMA = target: T1, HER2 INS YVMA (Homo sapiens, UniProt P04626, INS775YVMA); test: Lance Kinase Activity Assay, Her2 Exon 20 InsYVMA; conditions: biochemical Lance assay
T1 construct: purchased DPF
T1 sequence (P04626 with tags, fused parts or gaps INS775YVMA): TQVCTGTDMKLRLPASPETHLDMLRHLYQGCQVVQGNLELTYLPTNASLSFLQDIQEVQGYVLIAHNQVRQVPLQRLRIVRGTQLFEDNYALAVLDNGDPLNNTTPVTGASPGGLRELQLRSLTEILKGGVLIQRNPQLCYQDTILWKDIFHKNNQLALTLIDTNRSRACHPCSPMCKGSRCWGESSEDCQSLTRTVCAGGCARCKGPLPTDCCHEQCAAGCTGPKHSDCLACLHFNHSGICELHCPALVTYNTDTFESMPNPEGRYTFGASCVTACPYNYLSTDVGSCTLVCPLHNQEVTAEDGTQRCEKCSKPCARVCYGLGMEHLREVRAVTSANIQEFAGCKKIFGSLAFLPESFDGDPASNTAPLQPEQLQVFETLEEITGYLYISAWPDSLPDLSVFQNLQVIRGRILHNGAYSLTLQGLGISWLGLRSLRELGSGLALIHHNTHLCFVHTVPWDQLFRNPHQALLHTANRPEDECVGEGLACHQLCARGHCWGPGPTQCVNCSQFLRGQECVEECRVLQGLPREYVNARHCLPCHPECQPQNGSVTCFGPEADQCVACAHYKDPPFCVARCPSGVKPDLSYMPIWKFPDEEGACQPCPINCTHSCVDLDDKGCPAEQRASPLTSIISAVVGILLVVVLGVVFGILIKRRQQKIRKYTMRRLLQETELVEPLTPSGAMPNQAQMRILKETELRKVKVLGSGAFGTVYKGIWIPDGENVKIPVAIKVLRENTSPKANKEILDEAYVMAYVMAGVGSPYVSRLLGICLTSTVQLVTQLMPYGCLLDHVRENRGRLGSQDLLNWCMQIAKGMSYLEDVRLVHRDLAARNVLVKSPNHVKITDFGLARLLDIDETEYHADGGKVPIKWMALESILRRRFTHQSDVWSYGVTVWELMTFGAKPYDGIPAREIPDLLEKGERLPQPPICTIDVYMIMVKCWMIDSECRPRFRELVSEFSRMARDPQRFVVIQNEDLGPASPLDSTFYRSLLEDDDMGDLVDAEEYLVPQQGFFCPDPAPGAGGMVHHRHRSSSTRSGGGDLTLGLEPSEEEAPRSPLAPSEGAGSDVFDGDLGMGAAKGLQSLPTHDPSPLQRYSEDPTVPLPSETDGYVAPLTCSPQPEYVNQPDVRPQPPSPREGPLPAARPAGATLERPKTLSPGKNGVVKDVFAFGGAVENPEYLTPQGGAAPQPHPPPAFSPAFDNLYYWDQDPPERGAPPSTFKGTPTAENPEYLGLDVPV
Protocol: This protocol describes how the Lance Kinase Activity Assay was performed to determine IC50 values of compounds of general formula (I) against HER2 INS YVMA. The principle behind this enzymatic assay is based upon the phosphorylation of the Ulight-peptide substrate. It is detected by using a specific EU-labeled anti-phospho peptide antibody. The binding of the Eu labeled anti-phospho peptide antibody to the phosphorylated ULight labeled peptide gives rise to a FRET-signal. Binding of an inhibitor to the kinase prevents phosphorylation of the Ulight-substrate, resulting in a loss of FRET. In table 2 is summarized the relevant information for the LANCE assay. Table 2: Reagents, stock concentrations and final assay concentrations for Her2 INS YVMA.
The compounds of general formula (I) summarized in Table 3 were serial diluted from a 10 mM DMSO stock solution 1:3 over 8 steps in a total volume of 20 µl. For every sample, 8 µl of kinase-substrate mix was transferred into a suitable assay plate (e.g. Corning #3673). Compound was added via pintool transfer (10nl/well) using a Biomek FX robot (BeckmanCoulter). Reaction was started by addition of 2µl ATP working solution and mixed using variomag teleshaker (Thermo Fischer Scientific). After 1 h incubation at room temperature the reaction was stopped with 10µl detection mix containing the Eu-labeled phosphospecific antibody and 10mM EDTA. After a second incubation period of 1 h at room temperature the FRET signal was measured at 340 nm excitation, 665 nm and 615 nm emission (for the ULight-substrate and Eu-AB, respectively) with an Envision spectrophotometer (Perkin Elmer, Waltham, MA, USA) with 50 µs delay and 300 µs integration time. IC50 values were determined from the sigmoidal dose response curves with the software Quattro Workflow (Quattro GmbH, Munich, Germany).

H1975 = test: CellTiter-Glo cell viability, H1975; assay type: cell-based; conditions: Homo sapiens, NCI-H1975, 72 h, read-out: H1975 CTG IC50
Protocol: as §1

EGFR L858R = EGFR L858R (Homo sapiens, UniProt P00533, L858R); test: Lance assay, EGFR L858R; conditions: biochemical Lance assay

Row | IC50 (EGFR L858R Ba/F3) [nM] | IC50 (EGFR vIII Ba/F3) [nM] | IC50 (A431) [nM] | IC50 (EGFR wt) [nM] | IC50 [1] [nM] | IC50 (EGFR L858R T790M Ba/F3) [nM] | IC50 (EGFR (del746-750)) [nM] | IC50 [2] [nM] | IC50 (EGFR T790M L858R) [nM] | IC50 (HER2 INS YVMA) [nM] | IC50 (H1975) [nM] | IC50 (EGFR L858R) [nM] | SMILES | IC50 (Cuto-17) [nM]
1 | ≤ 50 | 100 to 500 | 1000 to 10000 | ≤ 50 | 100 to 500 | ≤ 50 | ≤ 50 | 100 to 500 | ≤ 50 | 50 to 100 | 500 to 1000 | ≤ 50 | C=CC(=O)Nc1cc(-c2c(-c3cnn(C)c3)[nH]c3ncc(C(=O)OC(C)C)cc23)ccc1C [Example 1, Isopropyl 3-(3-acrylamido-4-methylphenyl)-2-(1-methyl-1H-pyrazol-4-yl)-1H-pyrrolo[2,3-b]pyridine-5-carboxylate 2,2,2-trifluoroacetate] | 500 to 1000
2 | ≤ 50 | ≤ 50 | 1000 to 10000 | ≤ 50 | 50 to 100 | 100 to 500 | ≤ 50 | 100 to 500 | ≤ 50 | 100 to 500 | – | ≤ 50 | C=CC(=O)Nc1cc(-c2c(-c3cnn(C)c3)[nH]c3ncc(-c4cnn(C)c4)cc23)ccc1C [Example 26, N-(5-(2,5-bis(1-methyl-1H-pyrazol-4-yl)-1H-pyrrolo[2,3-b]pyridin-3-yl)-2-methylphenyl)acrylamide 2,2,2-trifluoroacetate] | –
3 | ≤ 50 | ≤ 50 | 1000 to 10000 | ≤ 50 | 100 to 500 | 100 to 500 | ≤ 50 | 500 to 1000 | ≤ 50 | 100 to 500 | – | ≤ 50 | C=CC(=O)Nc1cc(-c2c(-c3cnn(C)c3)[nH]c3ncc(-c4ccnn4C)cc23)ccc1C [Example 27, N-(2-methyl-5-(2-(1-methyl-1H-pyrazol-4-yl)-5-(-methyl-1 H-pyrazol-5-yl)-1 H-pyrrolo[2,3-b]pyridin-3-yl)phenyl)acrylamide] | –
4 | ≤ 50 | ≤ 50 | 1000 to 10000 | ≤ 50 | ≤ 50 | 50 to 100 | ≤ 50 | 100 to 500 | ≤ 50 | 50 to 100 | – | ≤ 50 | C=CC(=O)Nc1cc(-c2c(-c3cnn(C)c3)[nH]c3ncc(-c4cnn(CC)c4)cc23)ccc1C [Example 28, N-(5-(5-(1-ethyl-1H-pyrazol-4-yl)-2-(1-methyl-1 H-pyrazol-4-yl)-1 H-pyrrolo[2,3-b]pyridin-3-yl)-2-methylphenyl)acrylamide] | –
5 | ≤ 50 | ≤ 50 | 500 to 1000 | ≤ 50 | ≤ 50 | ≤ 50 | ≤ 50 | 100 to 500 | ≤ 50 | ≤ 50 | – | ≤ 50 | C=CC(=O)Nc1cc(-c2c(-c3cnn(C)c3)[nH]c3ncc(-c4cnn(C)c4C)cc23)ccc1C [Example 29, N-(5-(5-(1,5-dimethyl-1H-pyrazol-4-yl)-2-(1-methyl-1 H-pyrazol-4-yl)-1 H-pyrrolo[2,3-b]pyridin-3-yl)-2-methylphenyl)acrylamide] | –
6 | ≤ 50 | 100 to 500 | 1000 to 10000 | ≤ 50 | 100 to 500 | 100 to 500 | ≤ 50 | 500 to 1000 | ≤ 50 | 100 to 500 | – | ≤ 50 | C=CC(=O)Nc1cc(-c2c(-c3cnn(C)c3)[nH]c3ncc(-c4cn(C)nc4C)cc23)ccc1C [Example 30, N-(5-(5-(1,3-dimethyl-1H-pyrazol-4-yl)-2-(1-methyl-1 H-pyrazol-4-yl)-1 H-pyrrolo[2,3-b]pyridin-3-yl)-2-methylphenyl)acrylamide] | –
7 | ≤ 50 | ≤ 50 | 1000 to 10000 | ≤ 50 | 50 to 100 | ≤ 50 | ≤ 50 | 100 to 500 | ≤ 50 | 50 to 100 | – | ≤ 50 | C=CC(=O)Nc1cc(-c2c(-c3cnn(C)c3)[nH]c3ncc(-c4cnn(C5CC5)c4)cc23)ccc1C [Example 31, N-(5-(5-(1-cyclopropyl-1H-pyrazol-4-yl)-2-(1-methyl-1 H-pyrazol-4-yl)-1 H-pyrrolo[2,3-b]pyridin-3-yl)-2-methylphenyl)acrylamide] | –
8 | ≤ 50 | ≤ 50 | 1000 to 10000 | ≤ 50 | 50 to 100 | 100 to 500 | ≤ 50 | 100 to 500 | 100 to 500 | 100 to 500 | – | ≤ 50 | C=CC(=O)Nc1cc(-c2c(-c3cnn(C)c3)[nH]c3ncc(-c4cnn(CC(C)C)c4)cc23)ccc1C [Example 32, N-(5-(5-(1-isobutyl-1H-pyrazol-4-yl)-2-(1-methyl-1H-pyrazol-4-yl)-1H-pyrrolo[2,3-b]pyridin-3-yl)-2-methylphenyl)acrylamide] | –
9 | ≤ 50 | ≤ 50 | 1000 to 10000 | ≤ 50 | 100 to 500 | 100 to 500 | ≤ 50 | 500 to 1000 | ≤ 50 | 50 to 100 | – | ≤ 50 | C=CC(=O)Nc1cc(-c2c(-c3cnn(C)c3)[nH]c3ncc(-c4cnn(CCOC)c4)cc23)ccc1C [Example 33, N-(5-(5-(1-(2-methoxyethyl)-1 H-pyrazol-4-yl)-2-(1-methyl-1 H-pyrazol-4-yl)-1H-pyrrolo[2,3-b]pyridin-3-yl)-2-methylphenyl)acrylamide] | –
10 | > 10000 | 1000 to 10000 | 1000 to 10000 | ≤ 50 | 1000 to 10000 | 1000 to 10000 | ≤ 50 | > 10000 | 100 to 500 | 500 to 1000 | – | ≤ 50 | C=CC(=O)Nc1cc(-c2c(-c3cnn(C)c3)[nH]c3ncc(-c4cnn(CCN(C)C)c4)cc23)ccc1C [Example 34, N-(5-(5-(1-(2-(dimethylamino)ethyl)-1H-pyrazol-4-yl)-2-(1-methyl-1H-pyrazol-4-yl)-1H-pyrrolo[2,3-b]pyridin-3-yl)-2-methylphenyl)acrylamide] | –
11 | ≤ 50 | 100 to 500 | 1000 to 10000 | ≤ 50 | 500 to 1000 | 100 to 500 | ≤ 50 | 1000 to 10000 | ≤ 50 | 100 to 500 | – | ≤ 50 | C=CC(=O)Nc1cc(-c2c(-c3cnn(C)c3)[nH]c3ncc(-c4cnn(C5COC5)c4)cc23)ccc1C [Example 35, N-(2-methyl-5-(2-(1-methyl-1H-pyrazol-4-yl)-5-(1-(oxetan-3-yl)-1 H-pyrazol-4-yl)-1H-pyrrolo[2,3-b]pyridin-3-yl)phenyl)acrylamide] | –
